# Measured values reported in patent US20110172304A1, “Sex Attractant of White Peach Scale and Attraction Method” (Shin-Etsu Chemical Co., Ltd., priority 2010, published 2011).
# Assays:
# [1] = system: adult males of white peach scale; experiment: Field sticky-trap attraction test in a tea field, adult males of white peach scale; assay type: in vivo, Pseudaulacaspis pnetagona; conditions: number attracted to trap relative to Comparative Example 1 (100% Z isomer) = 100, rubber cap with 0.1 mg in total of Z and E isomers, June 2007
# Procedure: (§1) In accordance with the process described in J. Org. Chem. 1980, 45, 2910-2913, (R,Z)-(+)-3,9-dimethyl-6-isopropenyl-3,9-decadienyl propionate, the sex pheromone of white peach scale, was synthesized. The product thus obtained was separated into the Z isomer and the E isomer by using medium-pressure liquid column chromatography. A gray rubber cap (produced by West in US) impregnated with 0.1 mg in total of the Z isomer and the E isomer at a weight ratio of 100:0, 90:10, 80:20, 70:30, 60:40, 50:50, 40:60, 20:80 or 0:100 was used as an attractant for test.
# (§2) In the emerging season of first-generation adult males of white peach scale in June, 2007, the attractant described above was attached to a white sticky trap and placed at intervals of 10 m on ridges in a tea field. The numbers of adult males of white peach scale and Thomsonisca amathus, a parasitoid wasp and natural enemy thereof, which had stuck to the sticky plates, was counted every day, respectively.
# (§3) When the number of adult males of white peach scale attracted to the trap in Comparative Example 1 comprising an attractant containing 100% of (R,Z)-(+)-3,9-dimethyl-6-isopropenyl-3,9-decadienyl propionate was assigned as 100, the number attracted to each trap was calculated as a relative value. In the attraction test of Thomsonisca amathus, similar data processing was performed.
# Thomsonisca amathus = experiment: Field sticky-trap attraction test in a tea field, natural-enemy parasitoid wasp; assay type: in vivo; conditions: number attracted to trap relative to Comparative Example 1 (100% Z isomer) = 100, rubber cap with 0.1 mg in total of Z and E isomers, white sticky trap, June 2007
# Procedure: as §1, §2, §3
SMILES,attraction of adult males of white peach scale [1],attraction of Thomsonisca amathus (Thomsonisca amathus)
"C=C(C)CC[C@H](C/C=C(\C)CCOC(=O)CC)C(=C)C [Comp.Ex. 4, (R,E)-(+)-3,9-dimethyl-6-isopropenyl-3,9-decadienyl propionate]",0.0%,0.0%
"C=C(C)CC[C@H](C/C=C(/C)CCOC(=O)CC)C(=C)C [Comp.Ex. 1, (R,Z)-(+)-3,9-dimethyl-6-isopropenyl-3,9-decadienyl propionate]",100.0%,100.0%
